# Assay results from patent US20050214285A1, “Epitopes or mimotopes derived from the C-epsilon-3 or C-epsilon-4 domains of IgE, antagonists thereof, and their therapeutic uses” (SmithKline Beecham Biologicals, s.a. and Peptide …, priority 1999, published 2005).
# Several values for one entry are separate records, joined by “and”; a condition that tells them apart may be missing. Identical values can stand only once. Positions of bridges follow the written chain, without caps; N, C: chain ends. Residues, ends and D or L forms follow the SMILES beside them. No end group written: not given here.
# Key:
# [1] = system: PTmAb0011; experiment: Phage display ranking of peptide ligands for PTmAb0011; assay type: binding, mouse; details: for Rank (ECL) PTmAb0011: primary phage display biopannings (Table 7)
# From the text: (§1) Phage display libraries were used to map the binding sites of the monoclonal antibodies using three different phage libraries, displaying either the XCX15, XCX10 or XAX10 peptide sequence (where X is any amino acid) at the N-terminus of the phage gVIIIp. Tables 6 and 7 show the results of selecting for peptide ligands with the anti human IgE monoclonal antibodies […]. […]
# (§2) This involved a DNA sub-cloning transfer from the major coat protein (gVIIIp) filamentous phage display vector to a lower copy number minor phage coat protein (gIIIp) display vector with a random PCR step. […] Included in the tables are ranking orders and also BIAcore affinities where available.
# [2] = target: PTmAb0011; experiment: BIAcore affinity to PTmAb0011; assay type: binding, mouse; details: read-out: PTmAb BIAcore KD^Rel (μM) PTmAb0011
# From the text: as §2
# (§3) Thus indicating the importance of correct presentation of the peptides of the present invention to adopt a shape which closely resembles the native target in the context of the whole IgE molecule. [drawing]
# [3] = target: PTmAb0005; experiment: BIAcore affinity to PTmAb0005; assay type: binding; details: read-out: PTmAb BIAcore KD^Rel (μM) PTmAb0005
# From the text: as §2, §3
# [4] = system: human IgE; experiment: Immunisation of mice with peptide expressing phage; assay type: in vivo, mouse; details: peptide expressing phage used as immunogen
# [5] = system: PTmAb0005; experiment: Phage display ranking of peptide ligands for PTmAb0005; assay type: binding
# Method: as §1
# This was performed by introducing random mutations by PCR mutagenesis and sub-cloning into the Fuse 5 vector for minor filamentous phage protein gIIIp display. These, and other results, confirmed the importance of the amino acids within IgEC67 which aligned with the Cε2 epitope. […] Mutations in other sites had little effect on the affinity to PTmAb0005.
# as §2
# [6] = system: biotinylated peptide; experiment: Anti-peptide ELISA of sera from immunised mice; assay type: in vivo, BalbC mice; details: for Anti peptide immune responses, Mid point titres, Av / Anti peptide immune responses, Mid point titres, GM / Anti peptide immune responses/mouse, Mid point titres, mouse 1 / Anti peptide immune responses/mouse, Mid point titres, mouse 2 / Anti peptide immune responses/mouse, Mid point titres, mouse 3 / Anti peptide immune responses/mouse, Mid point titres, mouse 4 / Anti peptide immune responses/mouse, Mid point titres, mouse 5 / Anti peptide immune responses/mouse, Mid point titres, mouse 6 / Anti peptide immune responses/mouse, Mid point titres, mouse 7 / Anti peptide immune responses/mouse, Mid point titres, mouse 8 / Anti peptide immune responses/mouse, Mid point titres, mouse 9 / Anti peptide immune responses/mouse, Mid point titres, mouse 10: conjugated to BSA, 14 days after third vaccination; for Anti peptide immune responses, Mid point titres, Av: average; for Anti peptide immune responses, Mid point titres, GM: geomean
# Method: The anti-peptide and anti-carrier immune responses were investigated using an ELISA technique outlined below. Microtiterplates (Nunc) are coated with the specific antigen in PBS (4° overnight) with either: Streptavidin at 2 μg/ml (followed by incubation with biotinylated peptide (1 μM) for 1 hour at 37° C.), Wash 3×PBS-Tween 20 0.1%. Saturate plates with PBS-BSA 1%-Tween 20 0.1% (Sat buffer) for 1 hr at 37°. Add 1° antibody=sera in two-step dilution (in Sat buffer), incubate 1 hr 30 minutes at 37°. Wash 3×. Add 2° anti-mouse Ig (or anti-mouse isotype specific monoclonal antibody) coupled to HRP. Incubate 1 hr at 370. Wash 5×. Reveal with TMB (BioRad) for 10 minutes at room temperature in the dark. Block reaction with 0.4N H2SO4.
# (§4) The conjugates comprising the mimotope P15 (25 μg protein/dose), described in 1.4, were administered into groups of 10 BalbC mice, adjuvanted with and oil in water emulsion containing QS21 and 3D-MPL described in WO 95/17210 . Boosting was be performed on day 21 and on day 42 and sera can be harvested on day 42 and 56. The immune response anti-peptide and anti-plate bound IgE was followed using methods described in Example 1.
# [7] = system: basophils from freshly harvested peripheral blood from allergic patients
# From the text: Several dilutions of complete sera or IgG purified from conjugate immunised mice can be tested in presence of basophils from freshly harvested peripheral blood from allergic patients.
# [8] = system: human chimaeric IgE; experiment: IgE plate bound ELISA: anti-human IgE reactivity in mouse serum; assay type: in vivo; details: for anti-IgE antibody response when presented on carriers: in vivo
# Method: ELISA plates are coated with human chimaeric IgE at 1 μg/ml in pH 9.6 carbonate/bicarbonate coating buffer for 1 hour at 37° C. or overnight at 4° C. Non-specific binding sites are blocked with PBS/0.05% Tween-20 containing 5% w/v Marvel milk powder for 1 hour at 37° C. […] Polyclonal serum binding is detected with goat anti-mouse IgG-Biotin (1/2000) followed by Streptavidin-HRP (1/1000). Conjugated antibody is detected with TMB substrate at 450nm. A standard curve of PTmAb0011 is included on each plate so that the anti-IgE reactivity in serum samples can be calculated in μg/ml.
# as §4
# The mice were bled after the last immunisation and tested for anti-IgE reactivity in the IgE plate bound ELISA. The individual, average (Av), geomean (GM), results are summarised below (SD=standard deviation).
# These vaccines were administered into groups of 10 BalbC mice, and boosting was be performed on day 14 and on day 28 and sera was harvested on day 42. The immune response to anti-plate bound IgE and receptor orientated IgE, was then followed using the techniques described in example 1.4. Also, the activity of the antiserum in the inhibition of histamine release from allergic basophils was measured in the techniques described in 1.5.
# [9] = system: allergic human basophils; experiment: Histamine release inhibition from allergic human basophils; assay type: cell-based; details: antiserum of an individual immunised mouse, dilution 1/30
# Method: Blocking activity of anti-P15 antibodies in the antiserum was evaluated by the measuring of the inhibition of the histamine release induced by the allergen. Histamine release and inhibition was measured as described in example 3. As P15 is a mimotope of P1, PTmAb0011 was used as a control as it is known to bind to the same epitope (P1).
# [10] = target: T1, Cε2-4 (human, UniProt P01854-1 106-428); experiment: ELISA, graded
# T1 construct: also called WT cε2-4; cε2-4 fragment
# T1 sequence (P01854 other isoform, or with tags, fused parts or gaps limits assumed): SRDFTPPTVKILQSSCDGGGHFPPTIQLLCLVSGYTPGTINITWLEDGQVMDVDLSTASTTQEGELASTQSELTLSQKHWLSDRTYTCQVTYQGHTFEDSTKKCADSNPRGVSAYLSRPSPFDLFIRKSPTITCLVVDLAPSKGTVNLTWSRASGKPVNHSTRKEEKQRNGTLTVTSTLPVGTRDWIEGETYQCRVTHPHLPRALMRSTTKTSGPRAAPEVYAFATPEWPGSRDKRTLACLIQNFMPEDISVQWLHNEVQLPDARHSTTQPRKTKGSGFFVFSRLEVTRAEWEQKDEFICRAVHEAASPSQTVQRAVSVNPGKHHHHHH
# [11] = BalbC mice, 25 μg protein/dose, day 14 post third vaccination
molecule,measurement,setting,value
CC[C@H](C)[C@@H]1NC(=O)[C@H](CCSC)NC(=O)[C@H](CCC(=O)O)NC(=O)[C@H](CO)NC(=O)CNC(=O)CNC(=O)[C@H](CC(C)C)NC(=O)[C@H](Cc2c[nH]c3ccccc23)NC(=O)[C@H](C(C)C)NC(=O)[C@H](CCC(=O)O)NC(=O)[C@H](CCCNC(=N)N)NC(=O)[C@@H](NC(=O)[C@@H](N)CO)CSSC[C@@H](C(=O)N[C@@H](CCC(=O)O)C(=O)O)NC(=O)[C@H](CC(=O)O)NC(=O)[C@H](CCSC)NC1=O [EEC39/50/129] (H-SCREVWLGGSEMIMDCE-OH; disulfide 2-16),Rank (ECL) PTmAb0011,[1],1611
same,Kd,[2],2.4 µM
same,Kd,[3],> 1000 µM
CC(C)C[C@@H]1NC(=O)[C@H](CC(=O)O)NC(=O)CNC(=O)[C@H](CCC(=O)O)NC(=O)[C@H](CCCNC(=N)N)NC(=O)[C@@H]2CCCN2C(=O)[C@H](Cc2ccccc2)NC(=O)[C@H](C)NC(=O)[C@@H]2CCCN2C(=O)[C@@H](NC(=O)[C@@H](N)CO)CSSC[C@@H](C(=O)N[C@@H](C)C(=O)N2CCC[C@H]2C(=O)N2CCC[C@H]2C(=O)N[C@H](C(=O)N[C@H](C(=O)O)C(C)C)[C@@H](C)O)NC1=O [EEC131] (H-SCPAFPREGDLCAPPTV-OH; disulfide 2-12),Rank (ECL) PTmAb0011,[1],910
same,Kd,[2],42 µM
same,Kd,[3],> 1000 µM
CC[C@H](C)[C@@H]1NC(=O)[C@H](Cc2ccccc2)NC(=O)[C@@H](N)CSSC[C@@H](C(=O)N2CCC[C@H]2C(=O)N[C@@H](CCCNC(=N)N)C(=O)N[C@@H](CCC(=O)O)C(=O)O)NC(=O)[C@H](CC(C)C)NC(=O)[C@H](CCC(=O)O)NC(=O)[C@H](CC(C)C)NC(=O)[C@H](CC(=O)O)NC(=O)[C@H](C)NC(=O)[C@H](CCSC)NC(=O)[C@H](CCC(N)=O)NC(=O)[C@H](CCCCN)NC(=O)[C@H](CC(N)=O)NC1=O [IgEC67-8] (H-CFINKQMADLELCPRE-OH; disulfide 1-13),PTmAb Rank 0011,[1]; IgEC67 mutants (Table 8),2.4
same,Kd,[2],0.066 µM
same,anti-human IgE response in mice,[4],capable of inducing an anti-human IgE response in mice
same,Kd,[3],0.0094 µM
same,Rel. Rank A,[5]; IgEC67-8 mutants (Table 9),1.00
same,Rel. Rank B,[5]; IgEC67-8 mutants (Table 9),1.00
same,PTmAb Rank 0005,[5]; IgEC67 mutants (Table 8),4.36
CSQKHWLSDRT-NH2 [Peptide P17],"Anti peptide immune responses, Mid point titres, Av",[6],5446
same,"Anti peptide immune responses, Mid point titres, GM",[6],4656
same,"Anti peptide immune responses/mouse, Mid point titres, mouse 1",[6],100
same,"Anti peptide immune responses/mouse, Mid point titres, mouse 2",[6],4349
same,"Anti peptide immune responses/mouse, Mid point titres, mouse 3",[6],2850
same,"Anti peptide immune responses/mouse, Mid point titres, mouse 4",[6],3434
same,"Anti peptide immune responses/mouse, Mid point titres, mouse 5",[6],6133
same,"Anti peptide immune responses/mouse, Mid point titres, mouse 6",[6],2231
same,"Anti peptide immune responses/mouse, Mid point titres, mouse 7",[6],5085
same,"Anti peptide immune responses/mouse, Mid point titres, mouse 8",[6],2991
same,"Anti peptide immune responses/mouse, Mid point titres, mouse 9",[6],13070
same,"Anti peptide immune responses/mouse, Mid point titres, mouse 10",[6],8874
same,anaphylactogenicity of the induced antiserum,[7],non anaphylactogenic
same,anti-IgE antibody response when presented on carriers,[8],strong anti-IgE antibody responses
CSTTQEGELA-NH2 [Peptide P16],"Anti peptide immune responses, Mid point titres, Av",[6],1882
same,"Anti peptide immune responses, Mid point titres, GM",[6],1478
same,"Anti peptide immune responses/mouse, Mid point titres, mouse 1",[6],1891
same,"Anti peptide immune responses/mouse, Mid point titres, mouse 2",[6],649
same,"Anti peptide immune responses/mouse, Mid point titres, mouse 3",[6],1299
same,"Anti peptide immune responses/mouse, Mid point titres, mouse 4",[6],2349
same,"Anti peptide immune responses/mouse, Mid point titres, mouse 5",[6],591
same,"Anti peptide immune responses/mouse, Mid point titres, mouse 6",[6],1474
same,"Anti peptide immune responses/mouse, Mid point titres, mouse 7",[6],4605
same,"Anti peptide immune responses/mouse, Mid point titres, mouse 8",[6],918
same,"Anti peptide immune responses/mouse, Mid point titres, mouse 9",[6],4177
same,"Anti peptide immune responses/mouse, Mid point titres, mouse 10",[6],865
same,anaphylactogenicity of the induced antiserum,[7],non anaphylactogenic
same,anti-IgE antibody response when presented on carriers,[8],strong anti-IgE antibody responses
DALDERAWRARA [EEB33],Rank (ECL) PTmAb0011,[1],15
same,Kd,[2],117 µM
same,Kd,[3],> 600 µM
DCDWINPPDPPHFWKDT [EEC2/23/44/132],Rank (ECL) PTmAb0011,[1],33
same,Kd,[2],7 µM
same,Kd,[3],> 600 µM
P15-BSA: P15 (CLEDGQVMDVDLL) conjugated to BSA (CLEDGQVMDVDLL-NH2; also: conjugated to BSA) [Peptide P15-BSA],Anti-peptide responses (Mid point titre) Average,[6]; [11],49591
same,Anti-peptide responses (Mid point titre) Geomean,[6]; [11],48719
same,% inhibition of histamine release,[9],67% and 57%
same,anaphylactogenicity of the induced antiserum,[7],Neither antiserum generated with P15-BSA or P15-PD was shown to be anaphylactogenic
same,Anti-IgE responses (μg/ml (PTmAb0011)) Average,[8]; [11],2.2 µg/mL
same,Anti-IgE responses (μg/ml (PTmAb0011)) Geomean,[8]; [11],1.0 µg/mL
"recombinant FcεRIα ectodomain (receptor, UniProt P12319 26-205, looked up, extracellular domain; also called FcεR1α ectodomain; FcεR1α) VPQKPKVSLNPPWNRIFKGENVTLTCNGNNFFEVSSTKWFHNGSLSEETNSSLNIVNAKFEDSGEYKCQHQQVNESEPVYLEVFSDWLLLQASAEVVMEGQPLFLRCHGWRNWDVYKVIYYKDGEALKYWYENHNISITNATVEDSGTYYCTGKVWQLDYESEPLNITVIKAPREKYWLQ",binding result,[10],binds
